Results: patent publication US10227357B2, “Compounds and methods for kinase modulation, and indications therefor” (Plexxikon Inc., priority 2012, dated 2019)

What was measured:
[1] = target: T1, c-kit kinase (Homo sapiens, UniProt P10721); experiment: c-Kit biochemical assay, AlphaScreen, 10 μM ATP; conditions: c-kit biochemical inhibitory activity; read-out: Biochemical activity (IC50 μM) Kit
T1 construct: The c-kit (or kinase domain thereof) is an active kinase in AlphaScreen; poly-Histidine tag (in-house protein only) (cleaved yes); host or cells: E. coli BL21(DE3)RIL, co-expressed with PTP1B
How it was run: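 His-tagged c-Kit expressed in E. coli with co-expressed PTP1B (dephosphorylated), tag removed; 0.1 ng per reaction with biotinylated-peptide substrate in 50 mM HEPES pH 7.2, 5 mM MgCl2, 5 mM MnCl2, 5% DMSO, 10 μM ATP, 1 h at room temperature. Phosphorylation detected by AlphaScreen (streptavidin donor, PY20 acceptor beads); IC50 from 8-point 1:3 dilution series.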

[2] = target: T2, c-kit mutant D816V (Homo sapiens, UniProt P10721, D816V/DEL694-753); experiment: c-Kit mutant D816V biochemical assay, AlphaScreen; conditions: c-kit D816V biochemical inhibitory activity; read-out: Biochemical activity (IC50 μM) Kit D816V
T2 construct: residues 551-934, kinase insertion domain residues 694-753 deleted; 6x-histidine (N); made in house; host or cells: E. coli Arctic Express (DE3) RIL (Stratagene)
How it was run: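 Eight-point, threefold compound series incubated 30 min at room temperature with E. coli-produced D816V kinase, 10 μM ATP, Mg2+/Mn2+ HEPES buffer pH 7.2 and 5% DMSO. After EDTA stop, streptavidin and anti-phosphotyrosine (PY20) AlphaScreen beads gave the read-out, and IC50 was fitted from the concentration–signal curve.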

T2 sequence (P10721 with tags, fused parts or gaps DEL694-753/D816V): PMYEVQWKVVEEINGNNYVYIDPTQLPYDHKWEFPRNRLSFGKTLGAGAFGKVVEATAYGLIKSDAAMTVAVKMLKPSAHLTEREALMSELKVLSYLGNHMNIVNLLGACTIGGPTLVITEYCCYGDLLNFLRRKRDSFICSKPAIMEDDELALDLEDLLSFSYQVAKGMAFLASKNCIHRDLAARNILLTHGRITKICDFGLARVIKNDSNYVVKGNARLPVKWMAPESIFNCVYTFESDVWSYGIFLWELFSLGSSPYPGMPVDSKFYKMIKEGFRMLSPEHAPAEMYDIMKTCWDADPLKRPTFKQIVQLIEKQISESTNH
T1 sequence (P10721 26-976): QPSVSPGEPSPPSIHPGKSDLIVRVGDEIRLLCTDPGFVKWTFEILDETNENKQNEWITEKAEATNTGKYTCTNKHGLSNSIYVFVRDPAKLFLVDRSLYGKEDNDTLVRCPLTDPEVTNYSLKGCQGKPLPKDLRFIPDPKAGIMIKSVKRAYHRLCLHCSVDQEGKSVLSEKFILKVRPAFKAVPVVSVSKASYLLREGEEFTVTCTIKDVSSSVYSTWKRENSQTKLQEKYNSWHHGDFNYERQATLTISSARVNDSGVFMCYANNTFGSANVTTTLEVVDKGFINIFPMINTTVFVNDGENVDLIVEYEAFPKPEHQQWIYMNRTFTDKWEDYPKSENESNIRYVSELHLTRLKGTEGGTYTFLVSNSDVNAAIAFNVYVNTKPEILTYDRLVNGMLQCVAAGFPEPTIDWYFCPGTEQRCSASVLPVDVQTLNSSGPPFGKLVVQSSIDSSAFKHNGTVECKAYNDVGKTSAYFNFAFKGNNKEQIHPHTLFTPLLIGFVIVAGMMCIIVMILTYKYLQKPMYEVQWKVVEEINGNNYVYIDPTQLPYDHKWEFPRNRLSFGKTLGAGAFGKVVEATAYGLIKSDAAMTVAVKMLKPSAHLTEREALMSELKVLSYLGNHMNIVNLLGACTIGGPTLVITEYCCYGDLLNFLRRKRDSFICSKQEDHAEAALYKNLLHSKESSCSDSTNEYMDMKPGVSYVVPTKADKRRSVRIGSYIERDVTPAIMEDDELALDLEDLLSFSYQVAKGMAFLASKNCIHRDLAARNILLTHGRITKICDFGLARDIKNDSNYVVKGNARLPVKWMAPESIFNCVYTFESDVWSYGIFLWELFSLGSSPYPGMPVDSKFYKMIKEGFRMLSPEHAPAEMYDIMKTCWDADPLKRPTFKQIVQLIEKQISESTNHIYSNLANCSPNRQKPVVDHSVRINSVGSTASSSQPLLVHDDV

SMILES | IC50 [1] [µM] | IC50 [2] [µM]
CS(=O)(=O)Nc1cccc(-c2cc3c(N4CCN(C(=O)NCc5ccc(F)cc5)CC4)ncnc3[nH]2)c1 [P-0107, N-[(4-fluorophenyl)methyl]-4-[6-[3-(methanesulfonamido)phenyl]-7H-pyrrolo[2,3-d]pyrimidin-4-yl]piperazine-1-carboxamide] | 1 to 10 | 0.0001 to 1
NC(=O)c1cccc(-c2cc3c(N4CCN(C(=O)NCc5ccc(F)cc5)CC4)ncnc3[nH]2)c1 [P-0108, 4-[6-(3-carbamoylphenyl)-7H-pyrrolo[2,3-d]pyrimidin-4-yl]-N-[(4-fluorophenyl)methyl]piperazine-1-carboxamide] | 1 to 10 | 0.0001 to 1
N#Cc1ccc(-c2cc3c(N4CCN(C(=O)NCc5ccc(F)cc5)CC4)ncnc3[nH]2)cc1 [P-0109, 4-[6-(4-cyanophenyl)-7H-pyrrolo[2,3-d]pyrimidin-4-yl]-N-[(4-fluorophenyl)methyl]piperazine-1-carboxamide] | 10 to 200 | 1 to 10
N#Cc1cccc(-c2cc3c(N4CCN(C(=O)NCc5ccc(F)cc5)CC4)ncnc3[nH]2)c1 [P-0110, 4-[6-(3-cyanophenyl)-7H-pyrrolo[2,3-d]pyrimidin-4-yl]-N-[(4-fluorophenyl)methyl]piperazine-1-carboxamide] | 10 to 200 | 1 to 10
O=C(Nc1ccc(OC(F)(F)F)cc1)N1CCN(c2ncnc3[nH]c(-c4ccc(C5CC5)nc4)cc23)CC1 [P-0111, 4-[6-(6-cyclopropyl-3-pyridyl)-7H-pyrrolo[2,3-d]pyrimidin-4-yl]-N-[4-(trifluoromethoxy)phenyl]piperazine-1-carboxamide] | 1 to 10 | 10 to 200
O=C(Nc1ccc(OC(F)(F)F)cc1)N1CCN(c2ncnc3[nH]c(-c4cnc(C5CC5)nc4)cc23)CC1 [P-0112, 4-[6-(2-cyclopropylpyrimidin-5-yl)-7H-pyrrolo[2,3-d]pyrimidin-4-yl]-N-[4-(trifluoromethoxy)phenyl]piperazine-1-carboxamide] | 1 to 10 | 10 to 200
N#CC1(c2ccc(-c3cc4c(N5CCN(C(=O)Nc6ccc(OC(F)(F)F)cc6)CC5)ncnc4[nH]3)cc2)CC1 [P-0113, 4-[6-[4-(1-cyanocyclopropyl)phenyl]-7H-pyrrolo[2,3-d]pyrimidin-4-yl]-N-[4-(trifluoromethoxy)phenyl]piperazine-1-carboxamide] | 0.0001 to 1 | 1 to 10
CN(C)c1ccc(-c2cc3c(N4CCN(C(=O)Nc5ccc(OC(F)(F)F)cc5)CC4)ncnc3[nH]2)cn1 [P-0114, 4-[6-[6-(dimethylamino)-3-pyridyl]-7H-pyrrolo[2,3-d]pyrimidin-4-yl]-N-[4-(trifluoromethoxy)phenyl]piperazine-1-carboxamide] | 0.0001 to 1 | 1 to 10
Cc1ccc(-c2cc3c(N4CCN(C(=O)Nc5ccc(OC(F)(F)F)cc5)CC4)ncnc3[nH]2)cn1 [P-0115, 4-[6-(6-methyl-3-pyridyl)-7H-pyrrolo[2,3-d]pyrimidin-4-yl]-N-[4-(trifluoromethoxy)phenyl]piperazine-1-carboxamide] | 0.0001 to 1 | 10 to 200
CNC(=O)c1cccc(-c2cc3c(N4CCN(C(=O)Nc5ccc(OC(F)(F)F)cc5)CC4)ncnc3[nH]2)c1 [P-0116, 4-[6-[3-(methylcarbamoyl)phenyl]-7H-pyrrolo[2,3-d]pyrimidin-4-yl]-N-[4-(trifluoromethoxy)phenyl]piperazine-1-carboxamide] | 0.0001 to 1 | 10 to 200
COc1cc(-c2cc3c(N4CCN(C(=O)Nc5ccc(OC(F)(F)F)cc5)CC4)ncnc3[nH]2)ccn1 [P-0117, 4-[6-(2-methoxy-4-pyridyl)-7H-pyrrolo[2,3-d]pyrimidin-4-yl]-N-[4-(trifluoromethoxy)phenyl]piperazine-1-carboxamide] | 0.0001 to 1 | 10 to 200
COc1ccc(-c2cc3c(N4CCN(C(=O)Nc5ccc(OC(F)(F)F)cc5)CC4)ncnc3[nH]2)cn1 [P-0118, 4-[6-(6-methoxy-3-pyridyl)-7H-pyrrolo[2,3-d]pyrimidin-4-yl]-N-[4-(trifluoromethoxy)phenyl]piperazine-1-carboxamide] | 0.0001 to 1 | 10 to 200
CS(=O)(=O)Nc1cccc(-c2cc3c(N4CCN(C(=O)Nc5ccc(OC(F)(F)F)cc5)CC4)ncnc3[nH]2)c1 [P-0119, 4-[6-[3-(methanesulfonamido)phenyl]-7H-pyrrolo[2,3-d]pyrimidin-4-yl]-N-[4-(trifluoromethoxy)phenyl]piperazine-1-carboxamide] | 0.0001 to 1 | 1 to 10
CC(=O)Nc1cccc(-c2cc3c(N4CCN(C(=O)Nc5ccc(OC(F)(F)F)cc5)CC4)ncnc3[nH]2)c1 [P-0120, 4-[6-(3-acetamidophenyl)-7H-pyrrolo[2,3-d]pyrimidin-4-yl]-N-[4-(trifluoromethoxy)phenyl]piperazine-1-carboxamide] | 0.0001 to 1 | 1 to 10
N#Cc1cccc(-c2cc3c(N4CCN(C(=O)Nc5ccc(OC(F)(F)F)cc5)CC4)ncnc3[nH]2)c1 [P-0121, 4-[6-(3-cyanophenyl)-7H-pyrrolo[2,3-d]pyrimidin-4-yl]-N-[4-(trifluoromethoxy)phenyl]piperazine-1-carboxamide] | 10 to 200 | 10 to 200
O=C(NCc1ccc(Cl)cn1)N1CCN(c2ncnc3[nH]c(-c4cccnc4)cc23)CC1 [P-0123, N-[(5-chloro-2-pyridyl)methyl]-4-[6-(3-pyridyl)-7H-pyrrolo[2,3-d]pyrimidin-4-yl]piperazine-1-carboxamide] | 0.0001 to 1 | 0.0001 to 1
O=C(Nc1ccc(OC(F)F)cc1)N1CCN(c2ncnc3[nH]c(-c4ccc(F)cc4)cc23)CC1 [P-0125, N-[4-(difluoromethoxy)phenyl]-4-[6-(4-fluorophenyl)-7H-pyrrolo[2,3-d]pyrimidin-4-yl]piperazine-1-carboxamide] | 0.0001 to 1 | 1 to 10
COc1cc(CNC(=O)N2CCN(c3ncnc4[nH]c(-c5cccnc5)cc34)CC2)ccn1 [P-0127, N-[(2-methoxy-4-pyridyl)methyl]-4-[6-(3-pyridyl)-7H-pyrrolo[2,3-d]pyrimidin-4-yl]piperazine-1-carboxamide] | 10 to 200 | 1 to 10
COc1cccc(CNC(=O)N2CCN(c3ncnc4[nH]c(-c5cccnc5)cc34)CC2)n1 [P-0128, N-[(6-methoxy-2-pyridyl)methyl]-4-[6-(3-pyridyl)-7H-pyrrolo[2,3-d]pyrimidin-4-yl]piperazine-1-carboxamide] | 10 to 200 | 1 to 10
NC(=O)N1CCN(c2ncnc3[nH]c(-c4cccnc4)cc23)CC1 [P-0130, 4-[6-(3-pyridyl)-7H-pyrrolo[2,3-d]pyrimidin-4-yl]piperazine-1-carboxamide] | 10 to 200 | 1 to 10
O=C(NCc1cncc(F)c1)N1CCN(c2ncnc3[nH]c(-c4ccc(F)cc4)cc23)CC1 [P-0131, 4-[6-(4-fluorophenyl)-7H-pyrrolo[2,3-d]pyrimidin-4-yl]-N-[(5-fluoro-3-pyridyl)methyl]piperazine-1-carboxamide] | 1 to 10 | 1 to 10
O=C(Nc1ccc(OC(F)(F)F)cc1)N1CCN(c2ncnc3[nH]c(-c4ccc(F)cc4)cc23)CC1 [P-0133, 4-[6-(4-fluorophenyl)-7H-pyrrolo[2,3-d]pyrimidin-4-yl]-N-[4-(trifluoromethoxy)phenyl]piperazine-1-carboxamide] | 0.0001 to 1 | 1 to 10
O=C(Nc1ccc(OC(F)(F)F)cc1)N1CCN(c2ncnc3[nH]c(-c4ccc(Cl)cc4)cc23)CC1 [P-0134, 4-[6-(4-chlorophenyl)-7H-pyrrolo[2,3-d]pyrimidin-4-yl]-N-[4-(trifluoromethoxy)phenyl]piperazine-1-carboxamide] | 0.0001 to 1 | 1 to 10
O=C(NCc1ccc(F)cc1)N1CCN(c2ncnc3[nH]cc(CC4CC4)c23)CC1 [P-0137, 4-[5-(cyclopropylmethyl)-7H-pyrrolo[2,3-d]pyrimidin-4-yl]-N-[(4-fluorophenyl)methyl]piperazine-1-carboxamide] | 10 to 200 | 1 to 10
COc1cccc([C@H](C)NC(=O)N2CCN(c3ncnc4[nH]c(-c5ccc(F)cc5)cc34)CC2)c1 [P-0144, 4-[6-(4-fluorophenyl)-7H-pyrrolo[2,3-d]pyrimidin-4-yl]-N-[(1S)-1-(3-methoxyphenyl)ethyl]piperazine-1-carboxamide] | 1 to 10 | 0.0001 to 1
COc1cccc([C@@H](C)NC(=O)N2CCN(c3ncnc4[nH]c(-c5ccc(F)cc5)cc34)CC2)c1 [P-0149, 4-[6-(4-fluorophenyl)-7H-pyrrolo[2,3-d]pyrimidin-4-yl]-N-[(1R)-1-(3-methoxyphenyl)ethyl]piperazine-1-carboxamide] | 10 to 200 | 10 to 200
N#Cc1cc2c(N3CCN(C(=O)NCc4ccc(F)cc4)CC3)ncnc2[nH]1 [P-0150, 4-(6-cyano-7H-pyrrolo[2,3-d]pyrimidin-4-yl)-N-[(4-fluorophenyl)rnethyl]piperazine-1-carboxamide] | 10 to 200 | 10 to 200
Cc1nc(-c2cccc(NC(=O)N3CCN(c4ncnc5[nH]ccc45)CC3)c2)no1 [P-0151, N-[3-(5-methyl-1,2,4-oxadiazol-3-yl)phenyl]-4-(7H-pyrrolo[2,3-d]pyrimidin-4-yl)piperazine-1-carboxamide] | 10 to 200 | 10 to 200
